Data from a melting point compilation (Tetko et al.; mined from patent text by program, amines drawn as free bases though some values may be those of a salt).
Residues, ends and D or L forms follow the SMILES beside them. *: point of attachment. Cbz = O=C(OCc1ccccc1)*

melting point [°C] | Structure (SMILES)
207 to 208 | O=C(O)C=Cc1ccc2ccccc2c1
138 | O=C(O)CCC(=O)NCc1ccccc1
110 to 111 | COC(=O)C(Cc1ccc(O)cc1)c1cc2cc(C#N)ccc2o1 (stereo unspecified)
192 to 195 | CC(C)(CCP(=O)(O)O)c1ccc(O)cc1
196 | N#Cc1ccc(CN2CCN(c3cc(-c4ccccc4)c4ccc(=O)ccn34)CC2)cc1
238 to 241 | COC(=O)C(Cc1ccc(O)cc1)NC(=O)C(CO)NC(=O)C(Cc1c[nH]c2ccccc12)NC(=O)C(CCC(N)=O)NC(=O)OCc1ccccc1 (stereo unspecified) (Cbz-QWSY-OMe; configuration not given here)
110 to 115 | O=C(NC1(C(=O)O)CCOCC1)OCc1ccccc1
86 to 87 | CCOc1cc2c(cc1OC)OC(C)(C)CC2=O
148 to 150 | CCCc1nc2c(N)nc3cccnc3c2n1CCCCCC(=O)N1CCOCC1
202 | CN(C)C(=O)C(c1ccccc1)(c1ccccc1)c1ncc[nH]1
150 to 158 | COc1ccc(Nc2nc(NC3CCCCCC3)nc(Oc3ccccc3C#CC(C)(C)O)n2)cc1Cl
80.5 to 82 | COc1ccc(C2COC(c3c(F)cccc3Cl)=N2)cc1-c1ccccc1 (stereo unspecified)
167 | CCCn1nnc2c(C(N)=O)ncn2c1=O
266 to 268 | Cc1ccc(-c2cc3cc(C4=NNC(=O)CC4)ccc3[nH]2)cc1
176 | CCc1nn(C(=O)NS(=O)(=O)c2c(C)cccc2Cl)c(=O)n1C
120 to 121 | O=S(=O)(c1ccc(Cl)cc1)C(c1ccc(CN2CCOCC2)cn1)c1cc(F)ccc1F (stereo unspecified)
85 to 86 | CCCCCCCC[C@H](N[C@@H](C)C(=O)N1C(=O)N(C)C[C@H]1C(=O)O)C(=O)OCC
134 to 137 | Cc1nc(COc2ccc3c(c2)[C@H](O)[C@H](Cc2cccnc2)CO3)ccc1Br (relative stereo)
270 | O=C(Nc1ccc2ccc(Cl)nc2n1)C1=CSCCO1
202 to 204 | CC(Cl)(Cl)C(NC(=O)c1cccc(Cl)c1)Nc1c(Nc2cccnc2)c(=O)c1=O (stereo unspecified)
145 to 147 | COc1ccc(C(CC(C)=O)N2C(=O)c3cccc(NC(C)=O)c3C2=O)cc1OC1CCCC1 (stereo unspecified)
135 to 137 | O=[N+]([O-])c1ccc2nc(CCCCCCCCc3nc4ccc([N+](=O)[O-])cc4[nH]3)[nH]c2c1
176 to 178 | CC(C)COc1ccc(Br)cc1N(Cc1ccc(N(C)C)cc1)C(=O)C1CCCc2ccccc21 (stereo unspecified)
159 to 162 | CCOC(=O)C(Cc1c[nH]c2c(Cl)cccc12)(NC=O)C(=O)OCC

melting point [°C] | Structure (SMILES)
241 to 244 | O=C(O)CN1C(=O)C(=CC=Cc2ccccc2Br)SC1=S
53 to 54 | CC(C)=Cc1ccc(C(C)C(=O)O)cc1 (stereo unspecified)
158 to 161 | O=C1C(=Cn2ccnc2)c2ccccc2N1c1ccccc1
95 | O=C(c1cccs1)c1cnn2c(-c3cccc(-c4nnn(Cc5cccnc5)n4)c3)ccnc12
170 | CCCCCCCCCCCCCCCCCC(=O)c1cc(C(=O)O)ccc1O
84 to 86 | CCOC(=N)C1(O)CCCc2ccccc21 (stereo unspecified)
270 | CC1Nc2ccc(NC(=O)c3ccc(-c4ccccc4)cc3)cc2N1C (stereo unspecified)
250 to 253 | Cc1cc2nn(C)c(=O)n2nc1-c1cccc([N+](=O)[O-])c1
255 to 257 | O=C(NC(Cc1ccc(OCc2ccc(F)cc2)cc1)C(=O)O)c1cn2ccc(-c3ccc(Cl)cc3)cc2n1 (stereo unspecified)
169 to 170 | CCC(=O)c1ccc(NC(C)=O)cc1
172 to 173 | Cc1nn(-c2ccccn2)c2[nH]c3c(c(=O)c12)CCCC3
128 to 130 | Cc1ccc(OCc2sccc2S(=O)(=O)Nc2onc(C)c2Br)cc1
100 to 103 | CCn1nc(C(=O)NC2CN(C)CCN(C(=O)c3ccccc3)C2)c2ccccc21 (stereo unspecified)
124 to 126 | CCN(CC)c1nc(NCCCCO)nc(Nc2ccc3cc(-c4ccccc4)c(=O)oc3c2)n1
49 | CCCCc1ccc(-c2ccc(CCc3ccc(Cl)cc3)cc2)c(F)c1
92 to 92.5 | CC1=CN2CCS(=O)(=O)N=C2C(c2ccc(Oc3ccccc3)cc2)=N1
220 to 230 | N#Cc1ccc2c(c1)OC(=O)C(Br)C2Br (stereo unspecified)
130 to 132 | CN(N)c1nc(C(F)(F)F)nc2ccccc12
135 to 136 | NC(=O)C(c1ccc(Cl)cc1)c1ncc(C(F)(F)F)cc1Cl (stereo unspecified)
117 to 118 | COC1CCC(O)C(CNC(C)=O)O1 (stereo unspecified)
315 to 325 | CC(C)c1ccc2c(c1)c(=O)[nH]c1c2c2ccccc2n1C
161 | CCn1c(C(F)(F)F)nn(-c2cc(N)c(C(N)=S)cc2F)c1=O
117 to 119 | CC(C)(C)OC(=O)N1CCC(Oc2ccc(-c3ccc(=O)[nH]n3)c(F)c2)CC1
115 to 116 | CC(CO)NC(=O)COc1cc(Cl)ccc1C(=O)NCCN1CCN(Cc2ccc(Cl)c(Cl)c2)CC1 (stereo unspecified)

melting point [°C] | Structure (SMILES)
196 to 197 | O=c1c2ccc([N+](=O)[O-])cc2nc2n1CCC2=Cc1ccccc1
134 to 137 | CC1(C)CCCC(C)(C)N1c1nc(N2CCCC2)cc(N2CCNCC2)n1
125 to 127 | CCOC(=O)C1=C(CCCc2ccccc2)NC(C)=C(C(=O)OC)C1c1cccc([N+](=O)[O-])c1 (stereo unspecified)
254 to 256 | Cc1ccc(-c2c(C(=O)O)oc(=O)c3cnccc23)cc1
94.5 to 96.6 | Nc1c2c(cc3c1CCC3)CCC2
89 to 91 | COc1cc2c3c(c1)nc(SCc1ccc4ccccc4n1)n3CCC2
216 | NC(=O)Oc1ccccc1-c1nc2ccc(OCc3c(F)cccc3F)cc2s1
235 to 236 | CNC(=S)C1(c2cnc3ccccc3c2)CCCCC1=O (stereo unspecified)
180 to 182 | CC1(C)NC(=O)N(CC(CS(=O)(=O)c2ccc(-c3ccc(C(F)(F)F)cc3)cc2)N(O)C=O)C1=O (stereo unspecified)
242 to 250 | NS(=O)(=O)c1ccc(-c2c(-c3cccc(F)c3)noc2CC(=O)O)cc1
130 to 133 | CNC1=NN(C(=O)c2cccc([N+](=O)[O-])c2)C(C)(C)S1
262 to 263 | O=C1c2ccccc2C(=O)N1CC(=O)N1c2ccccc2N(Cc2ccccc2)C(=O)C(Cc2ccccc2)C1C(F)(F)F (stereo unspecified)
119 to 120 | Cc1c(C)c2c(c(C)c1NC(=O)OC(C)(C)C)C(c1ccc(C(C)C)cc1)C(C)(C)O2 (stereo unspecified)
246 | CCCC(=O)Nc1n[nH]c2cc(-c3ccc(C(C)(C)C)cc3)ccc12
112 to 114 | O=S(=O)(c1ccccc1)n1cc(I)c2c(OC3CCCCC3)ccnc21
151 | COc1ccc(CN(C)CCc2ccc(NC(=O)c3cccc4c(=O)c5cccc(OC)c5sc34)cc2)cc1OC
163 | C=CCOc1cc(C(=O)O)cc(S(C)(=O)=O)c1OCC=C
165 to 167 | N#Cc1c(Cl)nc(OCC(F)(F)F)nc1N1CCc2ccccc2CC1
79 to 81 | CCCCCCCCNC(=O)N1CCC(Oc2ccc(CCNC[C@H](O)COc3ccc(O)cc3)cc2)CC1
72 | COc1ccc(C(C#N)=NOS(=O)(=O)C(C)C)cc1
117 to 118 | CCCCCCCCCCCCCCCCCCOc1ccc(C(=O)O)o1
39 | CCCCCCc1cnc(-c2ccc(F)cc2)nc1
117 to 119 | CCC(CC)N(Cc1ccc(C(=O)OC)cn1)S(=O)(=O)c1ccc(F)cc1
72 to 74 | CCNc1c(C(=O)OCC)c(C)nc2nccnc12

melting point [°C] | Structure (SMILES)
130 to 131 | FC(F)(F)c1cc(-c2ccc(Cl)c(Cl)c2)nc2ccnn12
250 | CCOc1cc(-c2cc(C(F)(F)F)n3ncc(C(=O)Nc4cc(S(=O)(=O)NCCO)sc4Cl)c3n2)ccc1C(F)(F)F
73 to 74 | Brc1c(OCc2ccccc2)cccc1C1OCCCO1
238 to 239 | O=C1SCC(O)=C1Cc1ccc2ccccc2c1
189 to 191 | COc1cc2c(Nc3cc(CN4CCCC4)c(O)c(CN4CCCC4)c3)ncnc2c(OC)c1OC
105 to 106 | COc1ccc2c(c1)Cc1ccccc1C(=O)C2
176 | CCc1sc2c(c1S(=O)(=O)c1ccc(O)cc1)CN(Cc1ccccc1Cl)CC2
310 to 320 | C[C@@H](NC(=O)c1c[nH]c2ncc(-c3nn(C)c4ccsc34)nc12)C(=O)N1CC(C#N)C1
230 to 233 | O=C(NC(=O)c1c(Cl)cccc1Cl)Nc1ccc(-c2ccc(Cl)cc2)cn1
94 to 98 | CC(=O)C(C)Oc1ccc2[nH]c(C)c(C(=O)OCc3ccccc3)c2c1 (stereo unspecified)
194 to 196 | CCNCC1CCN(c2c(F)cc3c(=O)c(C(=O)O)cn(C4CCCCC4)c3c2F)C1 (stereo unspecified)
111 to 112 | O=C1[C@H]2CCC[C@H]2N(C(=O)CCCCCBr)c2ccccc2N1Cc1ccccc1 (relative stereo)
140 to 142 | COc1cc2c(cc1OCc1ccccc1)CCCC(C(=O)N1CCN(C(=O)c3cc(OC)c(OC)c(OC)c3)CC1)=C2
144 to 145 | CN(C)C(=O)c1ccccc1Sc1ccc([N+](=O)[O-])cc1[N+](=O)[O-]
158 to 159 | CON=Cc1ccc2c(c1)ncn2-c1cccc(-c2ncccn2)c1
284 to 288 | CCc1cc(Cl)cc2[nH]c(=O)c(-c3ccccc3)c(O)c12
175 to 178 | Cc1nc2cccc(OCC(C)(C)NC(=O)CC3CCOCC3)c2c(N)c1C(=O)O
132 to 134 | CON(C)Cc1nc2c(N)nc(C)c(C)c2n1CC(C)C
58 | O=c1[nH]c(=O)n(C2CC(F)C(COC(c3ccccc3)(c3ccccc3)c3ccccc3)O2)cc1C(I)=CI (stereo unspecified)
158 to 160 | CCOC(=O)c1nnc2c(sc3nc(C)ccc32)c1OCC
176 to 178 | O=C(C=Cc1ccc(S(=O)(=O)Nc2ccccc2)cc1)NO

Structure (SMILES) | melting point [°C]
Fc1ccccc1C1=CCc2nnc(-c3ccncc3)n2-c2ccc(Cl)cc21 | 198 to 200
[N-]=[N+]=Nc1cccc2cccc(O)c12 | 65 to 67
OC1(C#Cc2ccc(Br)cn2)CN2CCC1CC2 (stereo unspecified) | 194 to 198
